Common to all, as to assay: ≥ marks a high value that may be exact or a test limit, other limits are often not marked, values filed in µg/mL are converted to µM
Experiment [1] deals with Acinetobacter baumannii ATCC 15308.
For experiment [2], the system named is Citrobacter sp.
The test system of experiment [3] is Enterobacter cloacae.
The test system of experiment [4] is Escherichia coli ATCC 25922.
Experiment [5] relates to Klebsiella pneumoniae.
For experiment [6], the system named is Pseudomonas aeruginosa ATCC 15442.
In experiment [7] the test system is Staphylococcus aureus ATCC 25923.
The test system of experiment [8] is Staphylococcus aureus.
Experiment [9] deals with Streptococcus pneumoniae.
Experiment [10] relates to Bacillus cereus ATCC 11778.
The subject of experiment [11] is Klebsiella pneumoniae ATCC 700603.
Experiment [12] deals with Pseudomonas aeruginosa ATCC 27853.
Experiment [13] relates to Salmonella enterica subsp. enterica serovar Enteritidis ATCC 13076.
In experiment [14] the test system is Serratia marcescens ATCC 21202.
Experiment [15] concerns Staphylococcus aureus ATCC 29213.
The subject of experiment [16] is Streptococcus pyogenes ATCC 19615.
Experiment [17] concerns Escherichia coli K-12.
Experiment [18] concerns Pseudomonas aeruginosa PA-W1.
Experiment [19] concerns Pseudomonas aeruginosa PAO1.
The subject of experiment [20] is Staphylococcus aureus NCTC 8325-4.
Experiment [21] relates to Streptococcus gordonii ATCC 10558.
In experiment [22] the test system is Streptococcus oralis ATCC 9811.
The subject of experiment [23] is Streptococcus sanguinis ATCC 10556.
Experiment [24] concerns Acinetobacter baumannii Q12-0809.
Experiment [25] has as its system Acinetobacter baumannii Q12-0867.
For experiment [26], the system named is Acinetobacter baumannii Q13-0717.
In experiment [27] the test system is Acinetobacter baumannii.
Experiment [28] concerns Campylobacter jejuni NCTC 11351.
The test system of experiment [29] is Campylobacter jejuni.
Experiment [30] has as its system Enterococcus faecalis JH-2-2.
In experiment [31] the test system is Escherichia coli.
Experiment [32] has as its system Klebsiella pneumoniae NCTC 13442.
For experiment [33], the system named is Klebsiella pneumoniae Q14-0095.
The subject of experiment [34] is Klebsiella pneumoniae Q14-0146.
The subject of experiment [35] is Listeria monocytogenes NCTC 11994.
Experiment [36] concerns Pseudomonas aeruginosa Q14-0208.
The subject of experiment [37] is Pseudomonas aeruginosa Q14-0890.
Experiment [38] relates to Salmonella typhimurium SL1344.
The subject of experiment [39] is Staphylococcus aureus MRSA-15.
The subject of experiment [40] is Staphylococcus aureus NCTC 12493.
In experiment [41] the test system is Staphylococcus aureus Q14-0320.
For experiment [42], the system named is Staphylococcus aureus Q14-0325.
In experiment [43] the test system is Staphylococcus aureus RN4220.

Values after ≈ are worked out from the molar mass of the structure shown.

Consider `CC[C@H](C)[C@H](NC(=O)[C@H](CC(C)C)NC(=O)CNC(=O)CNC(=O)[C@H](CC(C)C)NC(=O)[C@@H](N)Cc1ccccc1)C(=O)N[C@@H](CCCCN)C(=O)N[C@@H](Cc1c[nH]c2ccccc12)C(=O)N[C@@H](Cc1c[nH]c2ccccc12)C(=O)N1CCC[C@H]1C(=O)N[C@@H](Cc1c[nH]c2ccccc12)C(=O)N[C@@H](CCCN=C(N)N)C(=O)N[C@@H](CCCN=C(N)N)C(N)=O` [FLGGLIKWWPWRR], for which the MIC was 18.2 µM (≈ 31.2 µg/mL) in experiment [1]; at least 146 µM in experiment [2]; at least 146 µM in experiment [3]; 4.55 µM (≈ 7.81 µg/mL) in experiment [4]; over 146 µM in [5]; 18.2 µM (≈ 31.2 µg/mL) in experiment [6]. Moreover, the MIC in [7], in [8] and in experiment [9] was 4.55 µM (≈ 7.81 µg/mL) in each case.
In the case of `CC[C@H](C)[C@H](NC(=O)[C@H](CC(=O)O)NC(=O)[C@H](CCSC)NC(=O)[C@H](CC(C)C)NC(=O)CN)C(=O)N[C@@H](Cc1ccccc1)C(=O)N[C@@H](CCCCN)C(=O)N[C@H](C(=O)N[C@@H](C)C(=O)N[C@H](C(=O)N[C@@H](CC(N)=O)C(=O)N[C@@H](CCCCN)C(=O)N[C@@H](CC(C)C)C(=O)N[C@@H](CC(C)C)C(=O)N[C@@H](C)C(=O)N[C@@H](C)C(=O)NCC(=O)N[C@@H](CCSC)C(=O)N[C@@H](CC(N)=O)C(=O)N[C@@H](CCCCN)C(=O)N1CCC[C@H]1C(=O)N[C@@H](CCCN=C(N)N)C(=O)N[C@H]1CSSC[C@@H](C(=O)O)NC(=O)[C@H](Cc2cnc[nH]2)NC(=O)[C@H](C)NC(=O)[C@H](C)NC(=O)[C@H](CCCCN)NC1=O)C(C)C)C(C)C` [GLMDIFKVAVNKLLAAGMNKPRCKAAHC], the MIC in experiment [10] was 17.8 µM (≈ 53.4 µg/mL); in experiment [4], 9.35 µM (≈ 28 µg/mL); in [11], 9.35 µM (≈ 28 µg/mL); in experiment [12], over 33.3 µM; in experiment [13], 17.8 µM (≈ 53.4 µg/mL); in [14] it was 9.35 µM (≈ 28 µg/mL). Besides, the values for the MIC in experiment [15] and in experiment [16] were 9.35 µM (≈ 28 µg/mL) and 17.8 µM (≈ 53.4 µg/mL), respectively.
For the molecule `CC(C)C[C@H](NC(=O)[C@H](CCCCN)NC(=O)[C@H](CCCCN)NC(=O)[C@H](CC(C)C)NC(=O)[C@H](CC(C)C)NC(=O)[C@H](CCCCN)NC(=O)[C@H](CCCCN)NC(=O)[C@H](CC(C)C)NC(=O)[C@H](CC(C)C)NC(=O)[C@H](CCCCN)NC(=O)[C@H](CCCCN)NC(=O)[C@@H](N)CC(C)C)C(N)=O` [LKKLLKKLLKKL], the MIC amounted to 7.81 µM (≈ 11.4 µg/mL) in experiment [17]; 31.3 µM (≈ 45.9 µg/mL) in experiment [5]; 15.6 µM (≈ 22.9 µg/mL) in [18]; 7.81 µM (≈ 11.4 µg/mL) in experiment [19]; 15.6 µM (≈ 22.9 µg/mL) in [20]; 62.5 µM (≈ 91.6 µg/mL) in [8].
Take `CC[C@H](C)[C@H](NC(=O)CNC(=O)CNC(=O)CNC(=O)CNC(=O)[C@H](Cc1c[nH]c2ccccc12)NC(=O)[C@@H](NC(=O)[C@H](Cc1cnc[nH]1)NC(=O)[C@H](CCSC)NC(=O)CNC(=O)[C@@H]1CCCN1C(=O)[C@H](C)NC(=O)[C@H](CC(=O)O)NC(=O)[C@@H]1CCCN1C(=O)[C@H](CC(C)C)NC(=O)[C@H](CCCCN)NC(=O)[C@@H](N)CCCN=C(N)N)[C@@H](C)O)C(=O)N[C@@H](CC(N)=O)C(=O)N[C@H](C(=O)N[C@@H](CC(C)C)C(=O)N[C@@H](CCC(N)=O)C(=O)N[C@@H](CCCCN)C(=O)N[C@@H](Cc1ccc(O)cc1)C(=O)N[C@@H](Cc1ccc(O)cc1)C(=O)N[C@@H](CS)C(=O)N[C@@H](CCCN=C(N)N)C(=O)N[C@H](C(=O)N[C@@H](CCCN=C(N)N)C(=O)NCC(=O)O)C(C)C)[C@@H](C)O` [RKLPDAPGMHTWGGGGINTLQKYYCRVRG]: the values for the MIC in experiment [21], in experiment [22] and in [23] were at least 186 µM, at least 155 µM and at least 186 µM, respectively.
Take `CSCC[C@H](NC(=O)[C@@H](N)[C@@H](C)O)C(=O)N[C@@H](CO)C(=O)N[C@@H](CC(C)C)C(=O)N[C@@H](CCCN=C(N)N)C(=O)N[C@@H](Cc1ccccc1)C(=O)N[C@@H](Cc1c[nH]c2ccccc12)C(=O)N[C@@H](CCCN=C(N)N)C(=O)N[C@@H](Cc1c[nH]c2ccccc12)C(=O)N[C@@H](CCCCN)C(=O)N[C@H](C(=O)N[C@@H](CCCN=C(N)N)C(=O)O)C(C)C` [TMSLRFWRWKVR]: the MIC in experiment [24] is at least 38.4 µM; in [25], 9.6 µM (≈ 16 µg/mL); in experiment [26], 19.2 µM (≈ 32 µg/mL); in [27], at least 76.8 µM; in experiment [28] it was at least 76.8 µM; in [29], at least 76.8 µM. The MIC was at least 38.4 µM in experiment [30]; at least 38.4 µM in experiment [17]; 76.8 µM (≈ 128 µg/mL) in [31]; over 76.8 µM in experiment [11]; at least 76.8 µM in experiment [32]; at least 76.8 µM in experiment [33]. The MIC is at least 76.8 µM in experiment [34]; at least 38.4 µM in [35]; 76.8 µM (≈ 128 µg/mL) in experiment [12]; 38.4 µM (≈ 64 µg/mL) in experiment [19]; at least 76.8 µM in experiment [36]; at least 38.4 µM in experiment [37]. Further, the MIC in experiment [38] was at least 38.4 µM; in experiment [15] it was 76.8 µM (≈ 128 µg/mL); in experiment [39], at least 38.4 µM; in experiment [40], at least 38.4 µM; in [41] it was at least 76.8 µM; in [42], at least 76.8 µM. In addition, the MIC in experiment [43] is at least 38.4 µM.

Values taken from DBAASP.
